Assay results from patent US20160297833A1, “THIENOPYRIMIDINES AS MKNK1 AND MKNK2 INHIBITORS” (BAYER PHARMA AKTIENGESELLSCHAFT, priority 2013, published 2016).

Each compound was assayed against T1, human full-length MKNK1 (Homo sapiens, UniProt Q9BUB5, T385D) (assay: MKNK1 kinase high ATP assay (TR-FRET)). Conditions: Table 1; MKNK1 kinase high ATP assay, 2 mM ATP; read-out: MKNK1 IC50.
T1 construct: GST (N); purchased Carna Biosciences 02-145; host or cells: insect cells (baculovirus expression system)
T1 sequence (Q9BUB5 1-424 isoform Q9BUB5-2 T344D): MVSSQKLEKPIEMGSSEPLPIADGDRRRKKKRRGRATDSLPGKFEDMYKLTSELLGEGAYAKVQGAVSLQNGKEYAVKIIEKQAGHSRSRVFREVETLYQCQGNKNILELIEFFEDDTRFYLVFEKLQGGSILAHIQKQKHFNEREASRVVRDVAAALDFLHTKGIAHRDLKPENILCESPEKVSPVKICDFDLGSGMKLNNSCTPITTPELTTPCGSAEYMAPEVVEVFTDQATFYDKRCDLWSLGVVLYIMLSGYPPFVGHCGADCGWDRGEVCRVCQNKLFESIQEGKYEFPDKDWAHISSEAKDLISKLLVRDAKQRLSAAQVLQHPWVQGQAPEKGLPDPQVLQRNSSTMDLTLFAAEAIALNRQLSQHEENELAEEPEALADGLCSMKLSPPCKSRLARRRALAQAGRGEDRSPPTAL
Format: biochemical
In short: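 Full-length human MKNK1 (T385D) preincubated 15 min at 22 °C with compound in HEPES pH 7.5/MgCl2/DTT buffer; reaction with 2 mM ATP (final) and 0.06 μM biotinylated peptide (final), 30 min at 22 °C.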

IC50 [nM]	SMILES
5.3	CSc1cc2[nH]ncc2cc1Nc1ncnc2sc3c(c12)CC[C@H](C(=O)N1C[C@H](C)O[C@@H](C)C1)C3 [Example 246, [(2S,6S)-2,6-Dimethylmorpholin-4-yl][(7S)-4-{[6-(methylsulfanyl)-1H-indazol-5-yl]amino}-5,6,7,8-tetrahydro[1]benzothieno[2,3-d]pyrimidin-7-yl]methanone]
0.6	CSc1cc2[nH]ncc2cc1Nc1ncnc2sc3c(c12)CC[C@H](C(=O)N1C[C@@H](C)O[C@H](C)C1)C3 [Example 247, [(2R,6R)-2,6-Dimethylmorpholin-4-yl][(7S)-4-{[6-(methylsulfanyl)-1H-indazol-5-yl]amino}-5,6,7,8-tetrahydro[1]benzothieno[2,3-d]pyrimidin-7-yl]methanone]
2.2	CSc1cc2[nH]ncc2cc1Nc1ncnc2sc3c(c12)CC[C@H](C(=O)N1CCOC[C@H]1C)C3 [Example 248, [(3R)-3-Methylmorpholin-4-yl][(7S)-4-{[6-(methylsulfanyl)-1H-indazol-5-yl]amino}-5,6,7,8-tetrahydro[1]benzothieno[2,3-d]pyrimidin-7-yl]methanone]
2.3	CSc1cc2[nH]ncc2cc1Nc1ncnc2sc3c(c12)CC[C@H](C(=O)N(C)CCC(F)(F)F)C3 [Example 249, (7S)—N-Methyl-4-{[6-(methylsulfanyl)-1H-indazol-5-yl]amino}-N-(3,3,3-trifluoropropyl)-5,6,7,8-tetrahydro[1]benzothieno[2,3-d]pyrimidine-7-carboxamide]
2.8	CSc1cc2[nH]ncc2cc1Nc1ncnc2sc3c(c12)CC[C@H](C(=O)N1CCC1)C3 [Example 250, Azetidin-1-yl[(7S)-4-{[6-(methylsulfanyl)-1H-indazol-5-yl]amino}-5,6,7,8-tetrahydro[1]benzothieno[2,3-d]pyrimidin-7-yl]methanone]
1.5	CSc1cc2[nH]ncc2cc1Nc1ncnc2sc3c(c12)CC[C@H](C(=O)N(C)C(C)C)C3 [Example 251, (7S)—N-Methyl-4-{[6-(methylsulfanyl)-1H-indazol-5-yl]amino}-N-(propan-2-yl)-5,6,7,8-tetrahydro[1]benzothieno[2,3-d]pyrimidine-7-carboxamide]
1.5	CSc1cc2[nH]ncc2cc1Nc1ncnc2sc3c(c12)CC[C@H](C(=O)N1C[C@@H](C)O[C@@H](C)C1)C3 [Example 252, [(2R,6S)-2,6-Dimethylmorpholin-4-yl][(7S)-4-{[6-(methylsulfanyl)-1H-indazol-5-yl]amino}-5,6,7,8-tetrahydro[1]benzothieno[2,3-d]pyrimidin-7-yl]methanone]
1.9	COCCN(C)C(=O)[C@H]1CCc2c(sc3ncnc(Nc4cc5cn[nH]c5cc4SC)c23)C1 [Example 253, (7S)—N-(2-Methoxyethyl)-N-methyl-4-{[6-(methylsulfanyl)-1H-indazol-5-yl]amino}-5,6,7,8-tetrahydro[1]benzothieno[2,3-d]pyrimidine-7-carboxamide]
1.3	CSc1cc2[nH]ncc2cc1Nc1ncnc2sc3c(c12)CC[C@H](C(=O)N1CCOC[C@@H]1C)C3 [Example 254, [(3S)-3-Methylmorpholin-4-yl][(7S)-4-{[6-(methylsulfanyl)-1H-indazol-5-yl]amino}-5,6,7,8-tetrahydro[1]benzothieno[2,3-d]pyrimidin-7-yl]methanone]
2	CSc1cc2[nH]ncc2cc1Nc1ncnc2sc3c(c12)CC[C@H](C(=O)N1CCOCC1)C3 [Example 255, [(7S)-4-{[6-(Methylsulfanyl)-1H-indazol-5-yl]amino}-5,6,7,8-tetrahydro[1]benzothieno[2,3-d]pyrimidin-7-yl](morpholin-4-yl)methanone]
43.3	CN(C)C(=O)[C@H]1CCc2c(sc3ncnc(Nc4cc5cn[nH]c5cc4OCCN(C)C(=O)OC(C)(C)C)c23)C1 [Example 256, tert-Butyl {2-[(5-{[(7S)-7-(dimethylcarbamoyl)-5,6,7,8-tetrahydro[1]benzothieno[2,3-d]pyrimidin-4-yl]amino}-1H-indazol-6-yl)oxy]ethyl}methylcarbamate]
2.4	CN(C)C(=O)[C@H]1CCc2c(sc3ncnc(Nc4cc5cn[nH]c5cc4OCCNC(=O)C(C)(C)C)c23)C1 [Example 257, (7S)-4-[(6-{2-[(2,2-Dimethylpropanoyl)amino]ethoxy}-1H-indazol-5-yl)amino]-N, N-dimethyl-5,6,7,8-tetrahydro[1]benzothieno[2,3-d]pyrimidine-7-carboxamide]
0.4	COC(=O)NCCOc1cc2[nH]ncc2cc1Nc1ncnc2sc3c(c12)CC[C@H](C(=O)N(C)C)C3 [Example 258, Methyl {2-[(5-{[(7S)-7-(dimethylcarbamoyl)-5,6,7,8-tetrahydro[1]benzothieno[2,3-d]pyrimidin-4-yl]amino}-1H-indazol-6-yl)oxy]ethyl}carbamate]
14.5	C[C@H](CNC(=O)OC(C)(C)C)Oc1cc2[nH]ncc2cc1Nc1ncnc2sc3c(c12)CC[C@H](C(=O)N(C)C)C3 [Example 259, tert-Butyl {(2R)-2-[(5-{[(7S)-7-(dimethylcarbamoyl)-5,6,7,8-tetrahydro[1]benzothieno[2,3-d]pyrimidin-4-yl]amino}-1H-indazol-6-yl)oxy]propyl}carbamate]
0.2	CC(C)OC(=O)NCCOc1cc2[nH]ncc2cc1Nc1ncnc2sc3c(c12)CC[C@H](C(=O)N(C)C)C3 [Example 260, Propan-2-yl {2-[(5-{[(7S)-7-(dimethylcarbamoyl)-5,6,7,8-tetrahydro[1]benzothieno[2,3-d]pyrimidin-4-yl]amino}-1H-indazol-6-yl)oxy]ethyl}carbamate]
3.2	CC(C)OC(=O)NC[C@@H](C)Oc1cc2[nH]ncc2cc1Nc1ncnc2sc3c(c12)CC[C@H](C(=O)N(C)C)C3 [Example 261, Propan-2-yl {(2R)-2-[(5-{[(7S)-7-(dimethylcarbamoyl)-5,6,7,8-tetrahydro[1]benzothieno[2,3-d]pyrimidin-4-yl]amino}-1H-indazol-6-yl)oxy]propyl}carbamate]
0.2	CCOC(=O)NCCOc1cc2[nH]ncc2cc1Nc1ncnc2sc3c(c12)CC[C@H](C(=O)N(C)C)C3 [Example 262, Ethyl {2-[(5-{[(7S)-7-(dimethylcarbamoyl)-5,6,7,8-tetrahydro[1]benzothieno[2,3-d]pyrimidin-4-yl]amino}-1H-indazol-6-yl)oxy]ethyl}carbamate]
1.6	CCOC(=O)NC[C@@H](C)Oc1cc2[nH]ncc2cc1Nc1ncnc2sc3c(c12)CC[C@H](C(=O)N(C)C)C3 [Example 263, Ethyl {(2R)-2-[(5-{[(7S)-7-(dimethylcarbamoyl)-5,6,7,8-tetrahydro[1]benzothieno[2,3-d]pyrimidin-4-yl]amino}-1H-indazol-6-yl)oxy]propyl}carbamate]
1.2	COC(=O)NC[C@@H](C)Oc1cc2[nH]ncc2cc1Nc1ncnc2sc3c(c12)CC[C@H](C(=O)N(C)C)C3 [Example 264, Methyl {(2R)-2-[(5-{[(7S)-7-(dimethylcarbamoyl)-5,6,7,8-tetrahydro[1]benzothieno[2,3-d]pyrimidin-4-yl]amino}-1H-indazol-6-yl)oxy]propyl}carbamate]
0.9	CN(C)C(=O)[C@H]1CCc2c(sc3ncnc(Nc4cc5cn[nH]c5cc4OC4CN(C(=O)OC(C)(C)C)C4)c23)C1 [Example 265, tert-Butyl 3-[(5-{[(7S)-7-(dimethylcarbamoyl)-5,6,7,8-tetrahydro[1]benzothieno[2,3-d]pyrimidin-4-yl]amino}-1H-indazol-6-yl)oxy]azetidine-1-carboxylate]
